Reference: the NIST ThermoML archive (doi:10.1021/je0340755)

Experiment: xn = mol fraction of the nth substance listed
Details: 101.3 kPa, Liquid; for viscosity: Capillary tube (Ostwald / Ubbelohde) method

OCCCO [propan-1,3-diol] + O
Details	mass density [kg/m3]	speed of sound [m/s]	viscosity [mPa·s]
298.15 K, x2 = 0.0622	1050.19	1650.1	37.15
298.15 K, x2 = 0.1496	1050.32	1654.3	32.92
298.15 K, x2 = 0.2563	1050.38	1670.2	27.68
298.15 K, x2 = 0.35	1050.3	1693.5	23.09
298.15 K, x2 = 0.4555	1049.74	1717.8	18.09
298.15 K, x2 = 0.5	1049.21	1723.1	16.07
298.15 K, x2 = 0.5548	1048.18	1726.1	13.67
298.15 K, x2 = 0.6522	1044.85	1723.3	9.731
298.15 K, x2 = 0.7553	1038.16	1712.1	6.136
298.15 K, x2 = 0.8522	1027.32	1689.1	3.434
298.15 K, x2 = 0.9085	1018.19	1653.2	2.22
298.15 K, x2 = 0.9147	1017.03	1646.8	2.104
298.15 K, x2 = 0.9255	1014.92	1636.1	1.91
298.15 K, x2 = 0.935	1012.97	1623.9	1.749
298.15 K, x2 = 0.9548	1008.63	1596	1.442
298.15 K, x2 = 0.9556	1008.44	1594	1.43
298.15 K, x2 = 0.9602	1007.37	1586	1.365
298.15 K, x2 = 0.97	1005	1568.2	1.233
298.15 K, x2 = 0.9801	1002.45	1547.1	1.107
298.15 K, x2 = 0.9897	999.9	1525.3	0.997
298.15 K, x2 = 0.9921	999.25	1519.1	0.971
298.15 K, x2 = 0.9951	998.42	1511	0.939
308.15 K, x2 = 0.0622	1043.88	1627.1	25.31
308.15 K, x2 = 0.1496	1044.01	1634.1	22.46
308.15 K, x2 = 0.2563	1044.07	1645.9	18.9
308.15 K, x2 = 0.35	1043.97	1662.2	15.8
308.15 K, x2 = 0.4555	1043.39	1681	12.44
308.15 K, x2 = 0.5	1042.86	1688	11.08
308.15 K, x2 = 0.5548	1041.87	1695.1	9.49
308.15 K, x2 = 0.6522	1038.75	1702.2	6.881
308.15 K, x2 = 0.7553	1032.55	1698.8	4.495
308.15 K, x2 = 0.8522	1022.53	1676.1	2.66
308.15 K, x2 = 0.9085	1014.02	1642.1	1.794
308.15 K, x2 = 0.9147	1012.94	1637.1	1.708
308.15 K, x2 = 0.9255	1010.96	1627.1	1.562
308.15 K, x2 = 0.935	1009.13	1617.2	1.439
308.15 K, x2 = 0.9548	1005.04	1594.1	1.197
308.15 K, x2 = 0.9556	1004.87	1593.1	1.188
308.15 K, x2 = 0.9602	1003.85	1586.2	1.135
308.15 K, x2 = 0.97	1001.61	1572.1	1.025
308.15 K, x2 = 0.9801	999.19	1556.1	0.917
308.15 K, x2 = 0.9897	996.76	1539.3	0.819
308.15 K, x2 = 0.9921	996.14	1534.1	0.795
308.15 K, x2 = 0.9951	995.35	1528.8	0.766
318.15 K, x2 = 0.0622	1037.53	1609.1	15.8
318.15 K, x2 = 0.1496	1037.64	1616	14.16
318.15 K, x2 = 0.2563	1037.68	1627.8	12.19
318.15 K, x2 = 0.35	1037.55	1643	10.48
318.15 K, x2 = 0.4555	1036.94	1661	8.554
318.15 K, x2 = 0.5	1036.42	1667	7.749
318.15 K, x2 = 0.5548	1035.46	1674.1	6.767
318.15 K, x2 = 0.6522	1032.48	1682	5.075
318.15 K, x2 = 0.7553	1026.64	1683	3.415
318.15 K, x2 = 0.8522	1017.23	1666.1	2.057
318.15 K, x2 = 0.9085	1009.22	1639.2	1.397
318.15 K, x2 = 0.9147	1008.19	1635.3	1.331
318.15 K, x2 = 0.9255	1006.32	1625.9	1.221
318.15 K, x2 = 0.935	1004.59	1617.9	1.127
318.15 K, x2 = 0.9548	1000.71	1598.1	0.945
318.15 K, x2 = 0.9556	1000.54	1592.2	0.938
318.15 K, x2 = 0.9602	999.58	1580.1	0.898
318.15 K, x2 = 0.97	997.45	1566.1	0.817
318.15 K, x2 = 0.9801	995.14	1552.1	0.737
318.15 K, x2 = 0.9897	992.82	1549.9	0.667
318.15 K, x2 = 0.9921	992.23	1548.1	0.65
318.15 K, x2 = 0.9951	991.47	1543.2	0.629
328.15 K, x2 = 0.0622	1031.1	1585.1	10.49
328.15 K, x2 = 0.1496	1031.18	1591.1	9.407
328.15 K, x2 = 0.2563	1031.17	1603.2	8.114
328.15 K, x2 = 0.35	1030.98	1618.2	6.986
328.15 K, x2 = 0.4555	1030.32	1635.8	5.721
328.15 K, x2 = 0.5	1029.79	1642.1	5.192
328.15 K, x2 = 0.5548	1028.83	1649.1	4.547
328.15 K, x2 = 0.6522	1025.94	1657.8	3.436
328.15 K, x2 = 0.7553	1020.39	1661.1	2.346
328.15 K, x2 = 0.8522	1011.49	1651.2	1.456
328.15 K, x2 = 0.9085	1003.89	1630	1.024
328.15 K, x2 = 0.9147	1002.92	1626.2	0.981
328.15 K, x2 = 0.9255	1001.14	1620.2	0.909
328.15 K, x2 = 0.935	999.49	1613.2	0.848
328.15 K, x2 = 0.9548	995.78	1597.2	0.729
328.15 K, x2 = 0.9556	995.62	1596.1	0.725
328.15 K, x2 = 0.9602	994.7	1591.8	0.699
328.15 K, x2 = 0.97	992.65	1582.1	0.646
328.15 K, x2 = 0.9801	990.44	1571.1	0.594
328.15 K, x2 = 0.9897	988.21	1559.2	0.549
328.15 K, x2 = 0.9921	987.63	1556.2	0.538
328.15 K, x2 = 0.9951	986.91	1552.2	0.524
338.15 K, x2 = 0.0622	1024.56	1565.1	7.386
338.15 K, x2 = 0.1496	1024.59	1571.2	6.633
338.15 K, x2 = 0.2563	1024.49	1582.3	5.732
338.15 K, x2 = 0.35	1024.2	1594.8	4.946
338.15 K, x2 = 0.4555	1023.41	1611.1	4.065
338.15 K, x2 = 0.5	1022.84	1616.8	3.696
338.15 K, x2 = 0.5548	1021.85	1623.9	3.247
338.15 K, x2 = 0.6522	1019	1634.1	2.473
338.15 K, x2 = 0.7553	1013.69	1639	1.715
338.15 K, x2 = 0.8522	1005.25	1632	1.096
338.15 K, x2 = 0.9085	998.04	1616	0.797
338.15 K, x2 = 0.9147	997.1	1613.2	0.767
338.15 K, x2 = 0.9255	995.41	1608.2	0.717
338.15 K, x2 = 0.935	993.83	1603.1	0.675
338.15 K, x2 = 0.9548	990.28	1591.1	0.593
338.15 K, x2 = 0.9556	990.13	1591.3	0.59
338.15 K, x2 = 0.9602	989.24	1587.1	0.572
338.15 K, x2 = 0.97	987.28	1579.9	0.536
338.15 K, x2 = 0.9801	985.14	1571	0.501
338.15 K, x2 = 0.9897	982.99	1562	0.469
338.15 K, x2 = 0.9921	982.43	1559.1	0.462
338.15 K, x2 = 0.9951	981.73	1556	0.453
